Test results from PMC8481833, “Kinetic Characterization and Inhibitor Screening of Pyruvate Kinase I From Babesia microti” (Frontiers in Microbiology, 2021).
“And” between values parts separate entries of the source, which are not always exact repeats. Identical values can stand only once. “Also recorded” adds a separate entry of the source. Like-named read-outs stand apart in the source and are kept apart here.

Key:
[1] = biological target: T1, rBmPYKI (Babesia microti, UniProt A0A1N6LXR4); test: biochemical; type: biochemical
[2] = biological target: rBmLDH (Babesia microti, UniProt I7J7V6); test: biochemical; type: biochemical
rBmLDH, sequence (I7J7V6 1-332): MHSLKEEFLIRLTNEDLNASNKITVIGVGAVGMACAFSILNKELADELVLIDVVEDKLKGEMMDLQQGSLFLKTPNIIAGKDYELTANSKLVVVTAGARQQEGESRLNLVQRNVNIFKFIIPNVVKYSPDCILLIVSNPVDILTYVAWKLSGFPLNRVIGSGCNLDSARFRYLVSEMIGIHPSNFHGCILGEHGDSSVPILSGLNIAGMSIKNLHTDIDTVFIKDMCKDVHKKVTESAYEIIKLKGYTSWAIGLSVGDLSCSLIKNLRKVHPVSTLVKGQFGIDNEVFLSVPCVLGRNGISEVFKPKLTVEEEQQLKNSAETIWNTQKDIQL

[3] = biological target: T1, rBmPYKI; test: Enzyme kinetics of rBmPYKI on substrates PEP and ADP; type: biochemical; conditions: substrate of rBmPYKI
Description: (§1) To determine the enzymatic activity of purified rBmPYKI, the GST tag was removed from the recombinant protein; and the indirect coupled lactate dehydrogenase (LDH) assay was applied. Recombinant B. microti LDH (rBmLDH) protein, the only one isoform in B. microti, was expressed and purified according to previously published protocol ([Yu et al., 2019]). The standard enzyme kinetic assay was conducted by monitoring the decrease in NADH at a wavelength of 340 nm using a microplate reader (BioTek, Winooski, VT, United States). One unit of the PYK activity here was defined as 1 μmol of NADH oxidized per minute at 37°C. The samples were continuously measured at 2, 7, 12, 17, 22, and 27 min. To determine the effects of pH and the concentration of Mg^2+ and K^+ on rBmPYKI, the assay was performed in the pH range of 5.5–8.5, and the Mg^2+ and K^+ concentrations ranged from 0 to 200 mM (0, 25, 50, 75, 100, 125, 150, 175, and 200 mM). The standard assay mixture (200 μl) contained 50 mM of Tris-HCl (pH 7.0), 50 mM of MgCl2, 20 mM of KCl, 0.5 mM of NADH (MilliporeSigma), 3 mM of PEP (MilliporeSigma), 1 mM of ADP (MilliporeSigma), 100 ng of rBmLDH (20 U), and 100 ng of rBmPYKI. The initial velocity for the rate of […] of NADH in the first 5 min was calculated, and the relative percentage activity was determined. The kinetic parameters for PEP (at 0.5, 1, 2, 3, 4, and 5 mM) under saturating ADP conditions (3 mM) were determined. The Michaelis–Menten constant (Km) for ADP under 7 mM of PEP (saturation) was determined at 0.05, 0.1, 0.2, 0.4, 0.6, 0.8, 1.0, 1.5, and 2.0 mM.

[4] = tested on: PYK from P. falciparum; conditions: cited from earlier work
[5] = tested on: corresponding enzymes from mammals; conditions: cited from earlier work
[6] = tested on: PYK from T. gondii; conditions: cited from earlier work
[7] = in vitro; conditions: human
[8] = in vitro; conditions: African green monkey
[9] = tested on: B. microti; test: Growth inhibition of Babesia microti by in vitro culture; type: cell-based; conditions: for IC50: read-out: IC50 B. microti
Description: Infected mouse blood was collected and centrifuged at 845 × g for 5 min, and the infected mouse RBCs was isolated. The RBCs infected by B. microti were diluted to 5% with uninfected mouse and human RBCs (10:1). […] Drug-free wells were set up as blank control. All treatments were carried out in triplicate. After 72 h of incubation, parasitemia was examined by Giemsa staining under a microscope.

[10] = tested on: B. microti; test: Rescue assay of tannic acid (pyruvate or ATP added); type: cell-based, Babesia microti; conditions: for effect of addition of ATP on the inhibitory effect: 2 mM ATP; for effect of addition of ATP on the inhibitory effect / effect of addition of pyruvate on the inhibitory effect / inhibition of B. microti as compared with DMSO: tannic acid 1 μM, DA about 10 μM; for effect of addition of pyruvate on the inhibitory effect: 2 mM pyruvic acid
Description: MilliporeSigma) was used as the positive control, and DMSO was used as the negative control because tannic acid was diluted in DMSO. The group only containing medium without any treatment was used as the blank control. Each test was performed in triplicate.

[11] = tested on: trypanosomes; set-up: method as in Worku et al., 2015; conditions: net ATP depletion by inhibiting PYK; ref Worku et al., 2015; cited from earlier work
[12] = tested on: Vero cells
[13] = tested on: HFF cells
[14] = Cytotoxicity assay, Cell Counting Kit-8, HFF cells; conditions: human
[15] = Cytotoxicity assay, Cell Counting Kit-8, Vero cells; conditions: African green monkey
[16] = substrate: C=C(OP(=O)(O)O)C(=O)O; test: Enzyme kinetics of rBmPYKI on substrates PEP and ADP; type: biochemical, Babesia microti; conditions: other: substrate of rBmPYKI; other substrate saturating; pH 7.0; 37.0 °C
Description: as §1, with “The standard assay mixture (200 μl) contained 50 mM of Tris-HCl (pH 7.0), 50 mM of MgCl2, 20 mM of KCl, 0.5 mM of NADH (MilliporeSigma), 3 mM of PEP (MilliporeSigma), 1 mM of ADP (MilliporeSigma), 100 ng of rBmLDH (20 U), and 100 ng of rBmPYKI.” left out, “The Michaelis–Menten constant (Km) for ADP under 7 mM of PEP (saturation) was determined at 0.05, 0.1, 0.2, 0.4, 0.6, 0.8, 1.0, 1.5, and 2.0 mM.” left out

[17] = substrate: Nc1ncnc2c1ncn2[C@@H]1O[C@H](COP(=O)(O)OP(=O)(O)O)[C@@H](O)[C@H]1O; test: Indirect coupled LDH assay following NADH decrease at 340 nm, pH 7.0, 37 °C, 50 mM MgCl2, 20 mM KCl, ADP varied 0.05-2.0 mM at saturating 7 mM PEP, no FBP.; type: biochemical
Description: To determine the enzymatic activity of purified rBmPYKI, the GST tag was removed from the recombinant protein; and the indirect coupled lactate dehydrogenase (LDH) assay was applied. Recombinant B. microti LDH (rBmLDH) protein, the only one isoform in B. microti, was expressed and purified according to previously published protocol ([Yu et al., 2019]). The standard enzyme kinetic assay was conducted by monitoring the decrease in NADH at a wavelength of 340 nm using a microplate reader (BioTek, Winooski, VT, United States). One unit of the PYK activity here was defined as 1 μmol of NADH oxidized per minute at 37°C. The samples were continuously measured at 2, 7, 12, 17, 22, and 27 min. […] The initial velocity for the rate of […] of NADH in the first 5 min was calculated, and the relative percentage activity was determined. The kinetic parameters for PEP (at 0.5, 1, 2, 3, 4, and 5 mM) under saturating ADP conditions (3 mM) were determined. […]
Statistical analysis was conducted with GraphPad Prism 7.0 (GraphPad Software, La Jolla, CA, United States). Statistical significance was evaluated by one-way ANOVA; and all data were presented as the mean ± standard deviation (SD) from at least three independent experiments performed in duplicate. […]

[18] = in vitro culture, 72 h, parasitemia by Giemsa staining

O=c1cc(-c2ccccc2)oc2ccc(O)cc12 [6-Hydroxyflavone]
IC50 ([1]; read-out: IC50 rBmPYKI): 390 µM | effect on rBmLDH / LDH reaction activity [2]: obvious inhibitory effect | IC50 ([2]; read-out: IC50 rBmLDH): 828 µM

Nc1ncnc2c1ncn2[C@@H]1O[C@H](COP(=O)(O)OP(=O)(O)O)[C@@H](O)[C@H]1O [ADP]
Kcat [3]: 21.8 S^–1 | KcatKM [3]: 5.62 × 10^4 S^–1⋅M^–1 | Vmax [3]: 242 ± 16 U/mg | Km ([3]; other substrate saturating): 388 ± 87 µM | Km [4]: 126 µM | Km [5]: 350 µM | Km [6]: 180 µM

O=c1cc(-c2ccc(O)cc2)oc2cc(O)cc(O)c12 [Apigenin]
IC50 [1]: 70 µM | effect on the activity of rBmPYKI [1]: significantly inhibit | CC50 [7]: 33 ± 1.18 µM | effect on rBmLDH / LDH reaction activity [2]: did not affect | IC50 ([2]; read-out: IC50 rBmLDH): > 1950 µM | CC50 [8]: 58.6 ± 2.97 µM | IC50 ([9]; Babesia microti, in vitro culture, 72 h, parasitemia by Giemsa staining): 2.1 ± 1.16 µM

CC(=O)NCC(=O)O.CC(=O)NCC(=O)O.N=C(N)c1ccc(N=NNc2ccc(C(=N)N)cc2)cc1 [DA, diminazene aceturate]
effect of addition of ATP on the inhibitory effect [10]: did not affect | effect of addition of pyruvate on the inhibitory effect [10]: no effect | inhibition of B. microti as compared with DMSO [10]: significantly inhibit

CCOC(=O)C(C)=O [Ethyl pyruvate]
time of exposure to kill trypanosomes [11]: ≤ 3 h

O=c1cc(-c2ccccc2)oc2ccccc12 [Flavone]
effect on the activity of rBmPYKI [1]: no effect | IC50 ([1]; read-out: IC50 rBmPYKI): > 1950 µM | effect on rBmLDH / LDH reaction activity [2]: no effect | IC50 ([2]; read-out: IC50 rBmLDH): > 1950 µM

CC(C)=CCC1=C(O)C(=O)c2ccccc2C1=O [Lapachol]
effect on the activity of rBmPYKI [1]: no effect | IC50 [2]: 721 µM | effect on rBmLDH / LDH reaction activity [2]: no effect

C=C(OP(=O)(O)O)C(=O)O [PEP, phosphoenolpyruvate]
Km [4]: 190 µM | Km [6]: 750 µM

CC1=C(CSC(=S)N2CCCCC2)C(=O)c2ccccc2C1=O [PKM2 inhibitor]
effect on the activity of rBmPYKI [1]: significantly inhibit | IC50 ([1]; read-out: IC50 rBmPYKI): 23 µM | effect on rBmLDH / LDH reaction activity [2]: did not affect | IC50 ([2]; read-out: IC50 rBmLDH): > 1950 µM | CC50 [12]: 39.2 ± 5.05 µM | CC50 [13]: 18.6 ± 2.46 µM | inhibition rate of B. microti growth ([9]; 50 μM, 72 h): 80% | IC50 [9, 18]: 1.15 ± 0.11 µM

CCc1ccc(CCOc2ccc(CC3SC(=O)NC3=O)cc2)nc1 (centres unmarked) [Pioglitazone]
IC50 [1]: 44 µM | effect on the activity of rBmPYKI [1]: significantly inhibit | effect on rBmLDH / LDH reaction activity [2]: did not affect | IC50 ([2]; read-out: IC50 rBmLDH): > 1950 µM | effect on the growth of B. microti ([9]; in vitro culture, 72 h): no significant effect

OC[C@H]1O[C@@H](Oc2cc(O)cc(/C=C/c3ccc(O)cc3)c2)[C@H](O)[C@@H](O)[C@@H]1O [Polydatin]
IC50 [1]: 92.9 µM | IC50 [2]: 142 µM | effect on rBmLDH / LDH reaction activity [2]: obvious inhibitory effect

CN(CCOc1ccc(CC2SC(=O)NC2=O)cc1)c1ccccn1 (centres unmarked) [Rosiglitazone]
effect on the activity of rBmPYKI [1]: significantly inhibit; also recorded: significantly reduce | IC50 ([1]; read-out: IC50 rBmPYKI): 6.89 µM

CC(C)=CC[C@@H](O)C1=CC(=O)c2c(O)ccc(O)c2C1=O [Shikonin]
IC50 [1]: 187 µM | effect on the activity of rBmPYKI [1]: significantly inhibit | effect on rBmLDH / LDH reaction activity [2]: did not affect | IC50 ([2]; read-out: IC50 rBmLDH): > 1950 µM | CC50 [14]: 0.63 ± 0.4 µM | CC50 [15]: 2.37 ± 0.26 µM | hemolysis of RBCs ([9]; 100 μM, infected RBC culture): Slight hemolysis | IC50 ([9]; Babesia microti, 72 h): 1.73 ± 0.69 µM | inhibition at 20 µM ([9]; Babesia microti, 72 h, read-out: inhibition rate of B. microti growth): 80%

Cc1ccc(C(=O)Nc2ccc(S(=O)(=O)O)c3cc(S(=O)(=O)O)cc(S(=O)(=O)O)c23)cc1NC(=O)c1cccc(NC(=O)Nc2cccc(C(=O)Nc3cc(C(=O)Nc4ccc(S(=O)(=O)O)c5cc(S(=O)(=O)O)cc(S(=O)(=O)O)c45)ccc3C)c2)c1 [Suramin]
IC50 ([1]; read-out: IC50 rBmPYKI): 125 µM | effect on rBmLDH / LDH reaction activity [2]: obvious inhibitory effect | IC50 ([2]; read-out: IC50 rBmLDH): 44.2 µM

COc1c(O)cc(O)c2c(=O)cc(-c3ccccc3)oc12 [Wogonin]
IC50 [1]: 185 µM | IC50 [2]: 143 µM | effect on rBmLDH / LDH reaction activity [2]: obvious inhibitory effect

Tannic acid
effect on the activity of rBmPYKI [1]: significantly inhibit; also recorded: significantly reduce | inhibition of the activity of rBmPYKI ([1]; 3 µM): more than 90% | IC50 ([1]; read-out: IC50 rBmPYKI): 0.5 µM and 0.49 µM | IC50 ([2]; read-out: IC50 rBmLDH): 23.6 µM | CC50 [12]: 53 ± 2.8 µM | CC50 [13]: 36.5 ± 4.75 µM | inhibition rate of B. microti growth ([9]; 20 μM, 72 h): 80% | IC50 [9, 18]: 0.77 µM | inhibition of B. microti growth ([10]; 1 μM, concentration used in rescue assay): 70% | effect of addition of ATP on the inhibitory effect [10]: did not affect | effect of addition of pyruvate on the inhibitory effect [10]: rescue | microscopy observation of inhibited parasites ([10]; Giemsa staining): mostly located outside RBCs | inhibition of B. microti as compared with DMSO [10]: significantly inhibit

B1: rBmPYKI (Babesia microti strain RI) (protein)
chain: MNRIIKAVPDDEISKKLTKIVCTIGPASANVDKIVAMIKSGMNVCRFNFSHGTHETHYETMKLVKEAMKQVPGKHIALMIDTKGPEIRTGKLAQGDYIQLTAGQTVKITSDQSVLCTNEIISITYEHLTSSVKPGNIILMADGTISFKVISVEKDYVVGEVMNSARLSNRKNVNLPGVKVNIPVIGEKDKKDILEFGVAHNMDYIAVSFVQSANDILSVKKLIGHNSNLKIISKIENVEGLINFDEILEVSDGIMIARGDLGMEIPSEKVFIAQKMMIYKCNIAGKPVITATQMLESMIVNPRPTRAEVTDVANAVLDGSDCVMLSGETANGAFSVECVRLMSHICLEAESCTDHMSVYLNLLKAIPTPVTTQEAIVRCSVGAIYSVNASCIIALTETGKTASLLAKYKPNQLIIAICNNENVAAGLALNRGVVPIMVDSFIDSDANINHAIEFAKKNNIVVEGSTVLAVHGMVSCAPGNTDMLKILNV
notes: recombinant, pGEX-6p-1, E. coli BL21, GST tag removed by 3C protease, 54 kDa
Km [16]: 655 ± 117 µM | Vmax [16]: 250 µmol/min/mg | Km [17]: 388 ± 87 µM | Vmax [17]: 242 µmol/min/mg
